# According to patent publication US9957270B2, “Fused pyrimidine-based hydroxamate derivatives” (Agency for Science, Technology and Research, priority 2014, dated 2018):
# Target: HDAC (HeLa nuclear extracts)
# Test: HDAC enzyme assay, HeLa nuclear extracts
# Conditions: read-out: In Vitro Enzymatic IC50 HDAC (HeLa)
row,IC50,Structure (SMILES)
1,10 to 100 nM,"CC(C)n1cnc2c(-c3cccc(OCCCCCCC(=O)NO)c3)nc(N3CCOCC3)nc21 [compound 12, N-hydroxy-7-(3-(9-isopropyl-2-morpholino-9H-purin-6-yl)phenoxy)heptanamide]"
2,100 to 1000 nM,"CC(C)n1cnc2c(-c3ccc(COCCCCCC(=O)NO)cc3)nc(N3CCOCC3)nc21 [compound 21, N-hydroxy-6-((4-(9-isopropyl-2-morpholino-9H-purin-6-yl)benzyl)oxy)hexanamide]"
3,100 to 1000 nM,"CC(C)n1cnc2c(-c3cccc(COCC(=O)NO)c3)nc(N3CCOCC3)nc21 [compound 42, N-hydroxy-2-((3-(9-isopropyl-2-morpholino-9H-purin-6-yl)benzyl)oxy)acetamide]"
4,1000 to 10000 nM,"CC(C)n1cnc2c(-c3ccc(OCC(=O)NO)cc3)nc(N3CCOCC3)nc21 [compound 33, N-hydroxy-2-(4-(9-isopropyl-2-morpholino-9H-purin-6-yl)phenoxy)acetamide]"
5,100 to 1000 nM,"CC(C)n1cnc2c(-c3cccc(CNCc4ccc(C(=O)NO)cc4)c3)nc(N3CCOCC3)nc21 [compound 35, N-hydroxy-4-(((3-(9-isopropyl-2-morpholino-9H-purin-6-yl)benzyl)amino)methyl)benzamide]"
6,1000 to 10000 nM,"CC(C)n1cnc2c(-c3ccc(COCCCCCCC(=O)NO)cc3)nc(N3CCOCC3)nc21 [compound 22, N-hydroxy-7-((4-(9-isopropyl-2-morpholino-9H-purin-6-yl)benzyl)oxy)heptanamide]"
7,100 to 1000 nM,"CC(C)n1cnc2c(-c3ccc(OCCCCCCC(=O)NO)cc3)nc(N3CCOCC3)nc21 [compound 16, N-hydroxy-7-(4-(9-isopropyl-2-morpholino-9H-purin-6-yl)phenoxy)heptanamide]"
8,1000 to 10000 nM,"CC(C)n1cnc2c(-c3ccc(OCCCC(=O)NO)cc3)nc(N3CCOCC3)nc21 [compound 13, N-hydroxy-4-(4-(9-isopropyl-2-morpholino-9H-purin-6-yl)phenoxy)butanamide]"
9,100 to 1000 nM,"CC(C)n1cnc2c(-c3ccc(COCCCCC(=O)NO)cc3)nc(N3CCOCC3)nc21 [compound 20, N-hydroxy-5-((4-(9-isopropyl-2-morpholino-9H-purin-6-yl)benzyl)oxy)pentanamide]"
10,100 to 1000 nM,"CC(C)n1cnc2c(-c3cccc(NC(=O)CCCC(=O)NO)c3)nc(N3CCOCC3)nc21 [compound 9, N^1-hydroxy-N^5-(3-(9-isopropyl-2-morpholino-9H-purin-6-yl)phenyl)glutaramide]"
11,10 to 100 nM,"CC(C)n1cnc2c(-c3cccc(OCCCCCC(=O)NO)c3)nc(N3CCOCC3)nc21 [compound 11, N-hydroxy-6-(3-(9-isopropyl-2-morpholino-9H-purin-6-yl)phenoxy)hexanamide]"
12,100 to 1000 nM,"CC(C)n1cnc2c(-c3ccc(OCCCCCC(=O)NO)cc3)nc(N3CCOCC3)nc21 [compound 15, N-hydroxy-6-(4-(9-isopropyl-2-morpholino-9H-purin-6-yl)phenoxy)hexanamide]"
13,10 to 100 nM,"CC(C)n1cnc2c(-c3cccc(CNCCCCCC(=O)NO)c3)nc(N3CCOCC3)nc21 [compound 36, N-hydroxy-6-((3-(9-isopropyl-2-morpholino-9H-purin-6-yl)benzyl)amino)hexanamide]"
14,1000 to 10000 nM,"CC(C)n1cnc2c(-c3cccc(CN4CCC(C(=O)NO)CC4)c3)nc(N3CCOCC3)nc21 [compound 34, N-hydroxy-1-(3-(9-isopropyl-2-morpholino-9H-purin-6-yl)benzyl)piperidine-4-carboxamide]"
15,10 to 100 nM,"CC(C)n1cnc2c(-c3cccc(NC(=O)CCCCCCCC(=O)NO)c3)nc(N3CCOCC3)nc21 [compound 8, N^1-hydroxy-N^9-(3-(9-isopropyl-2-morpholino-9H-purin-6-yl)phenyl)nonanediamide]"
16,1000 to 10000 nM,"CC(C)n1cnc2c(-c3ccc(COCC(=O)NO)cc3)nc(N3CCOCC3)nc21 [compound 32, N-hydroxy-2-((4-(9-isopropyl-2-morpholino-9H-purin-6-yl)benzyl)oxy)acetamide]"
